Data published in US9072729B2, “Method for treating fibrosis and cancer with imidazolium and imidazolinium compounds” (Agency for Science, Technology and Research, priority 2008, dated 2015).

What was measured:
[1] = test system: NF-κB P65; test: Western blotting of nuclear NF-κB and AP-1 in HSC T6 cells; format: cell-based, rat; details: DBZIM 100 μM, TDBZIM 50 μM, 48 h
Procedure: FIG. 11. Western blotting of NF-κB and AP-1 (c-Fos, JunD and Fra-1) protein expressions in HSC T6 cells treated with DBZIM (100 μM) and TDBZIM (50 μM) for 48 h. 15 μg of nuclear protein was resolved in 4-12% gradient PAGE-SDS gel. The target proteins were recognized by the respective antibodies, and visualized by the ECL method. The membrane was stripped and probed for the Tata binding protein TBP used as the loading control.
Protein extracts were prepared by lysing a cell pellet in 10 volumes of boiled 1% sodium dodecyl sulfate (SDS) (90-95° C.) for 10 min for GFAP, or using NE-PER nuclear and cytoplasmic extraction reagents from Pierce (IL, USA) for nuclear proteins, or RIPA (Pierce, Ill., USA) for SMAA, fibronectin, collagen αI(I), TGF-β1 and TGFβ RI. Protein content was quantified using a BCA kit (Pierce, Ill., USA). […] The membrane was then probed with primary antibodies against GFAP (Dako, Denmark), SMAA (Sigma, USA), procollagen αI(I), fibronectin, c-Jun, c-Fos, JunB, JunD, Fra-1, Fra-2 (Santa Cruz Biotechnology, CA, USA), NF-κB P65, TGF-β1 and TGFβ RI (Abeam, UK), and detected by horseradish peroxidase-conjugated secondary antibody (Santa Cruz Biotechnology, CA, USA). […] Protein bands were recorded on X-ray film by reacting with ECL chemiluminescence reagents (Amersham Biosciences, NJ, USA). […]

[2] = test system: GFAP-LacZ transgene; test: β-galactosidase activity in T6/GFAP-lacZ cells; format: cell-based, rat
Procedure: FIG. 12. (a) DBZIM and (b) TDBZIM attenuated GFAP-LacZ transgene as reported by β-galactosidase activity. Stable transfected T6 GFAP-LacZ cells were treated with compounds of 1-300 μM concentrations, and assayed after 24 h and 48 h. The (3-galactosidase activity was normalized to the total protein, and presented as relative value after comparing to the vehicle control. The data were presented as mean and SEM, N=6, *^cP<0.005, and *^dP<0.0005, when compared to the vehicle control.
Beta-galactosidase activity in extracts from T6/GFAP-lacZ cells treated by DBZIM or TDBZIM was measured using a chemiluminescent assay kit (Roche, Mannheim, Germany) in a 96-well plate format, according to the manufacturer's instructions. Briefly, cells were washed twice with ice-cold 1×PBS (pH 7.4), and lysed for 30 min at room temperature in the lysis buffer. The supernatant was collected for assays with a Tecan Sere II plate reader. Protein concentration was determined with a BCA protein assay kit (Pierce, Ill., USA). Specific β-galactosidase activity was obtained by normalizing against total cellular protein content.

[3] = test system: HLE cells; test: Cell cycle analysis (PI flow cytometry); format: cell-based, human; details: 72 h; for cells in the S phase: at respective IC-50, control 24%; for cells in the G2/M phase: at respective IC-50, control 30%; for cells in the G1 phase: at respective IC-50, control 50%
Procedure: FIG. 37. IMSs arrest Hepatocarcinoma cells. Cells were treated with vehicle and IBN 15, IBN 19, IBN 24, IBN 25 and IBN 32 for 72 h, and cell cycle distribution was assessed by flow cytometry. A) Example FACS profiles of propidium iodide-stained control cells, and cells treated with IMSs respectively. B) % of cells in cell cycle phase C) % of cells in subG0 population. Each value is the mean±S.D. of three determinations.
To perform cell cycle distribution analysis, 4×10^5 cells were plated in 10 cm dish. The cells (70% confluence) were serum-starved for 24 h to synchronize them in the G0 phase of the cell cycle. After 24 h incubation, the cells were replaced with fresh 10% DMEM medium and then treated 60 μM of IBN-15, 90 μM of IBN-19, 90 μM of IBN-24, 30 μM of […] and 20 μM of IBN-32) and 0.045% DMSO as control for 72 h. The floating and trypsinized adherent cells were collected and washed with PBS. The cell pellets were resuspended in 1 ml of PBS and fixed by the addition of 70% ice-cold ethanol and stored at −20° C. After incubation for 24 hr, the cells were re-pelleted by centrifugation, the cells were washed once with PBS and resuspended in 0.1 mL of PBS containing 100 μg/ml of RNase and then incubated at 37° C. for 15 min. Finally, the cells were stained with 0.5 ml of PI solution (100 μg/mL in PBS) for 30 min. Cell cycle distribution was detected by a BD FACS array flow cytometer (Becton Dickinson). Cells with sub-G0 DNA were classified as apoptotic cells.

Row | Molecule | nuclear NF-κB P65 (active form) protein [1] | suppression of β-galactosidase activity (transient) ([2]; 100 μM, 24 h) [%] | suppression of β-galactosidase activity ([2]; 100 μM) [%] | suppression of β-galactosidase activity ([2]; 300 μM) [%] | cells in the S phase [3] [%] | cells in the G2/M phase [3] [%] | cells in the G1 phase [3] [%]
1 | 1,3,5-tris(4-methyl-imidazolium)-linked cyclophane.3Br [TDBZIM] | significantly attenuated | 20 | – | – | – | – | –
2 | [Br-].c1ccc(Cn2cc[n+](Cc3ccccc3)c2)cc1 [DBZIM, 1,3-bisbenzylimidazolium bromide] | significantly attenuated | – | 25 | 34 | – | – | –
3 | CC(=O)Oc1ccc(C[n+]2ccn(Cc3ccccc3)c2C)cc1.[Cl-] [IBN-19, 1-benzyl-3-(4-acetate-benzyl)-2-methyl-imidazolium chloride] | – | – | – | – | 19.8 | 23.7 | 29
4 | Cc1ccc(C[n+]2ccn(Cc3ccccc3)c2)cc1.[Cl-] [IBN-24, 1-benzyl-3-(4-methylbenzyl)-imidazolium chloride] | – | – | – | – | 11.34 | 16.3 | 28.6
